Test results as given in patent US6495313B2, “Silver halide color photographic light-sensitive material” (Fuji Photo Film Co., Ltd., priority 1997, dated 2002).

assay: pKa of cyan coupler by pH titration (half-neutralization point); assay type: physicochemical; settings: tetrahydrofuran/water 6/4 by volume, solvent mixture of tetrahydrofuran and water 6/4 by volume
Protocol: The pKa of the coupler can be easily determined by obtaining a pH of a point where neutralization is performed just half on a pH titration curve measured in a solvent mixture of tetrahydrofuran and water in a ratio of 6/4 by volume.

Compound	pKa
CCCCCCCCCCCCc1ccc(S(=O)(=O)c2cc(C(=O)NCCc3ccccc3NC(C)=O)c(O)c3ccccc23)cc1 [Sample C-8]	6.02
CCCCCCCCCCCCCCOc1ccccc1NC(=O)c1cc(OC(C)=O)c2ccccc2c1O [Sample C-6]	≤ 8.7
CCCCCCCCCCCCCCCCNC(=O)c1cc(OCCS(C)(=O)=O)c2ccccc2c1O [Sample C-4, reference compound]	10.3
